Source: paper PMC9031226, “Preclinical Therapeutic Assessment of a New Chemotherapeutics [Dichloro(4,4’-Bis(2,2,3,3-Tetrafluoropropoxy) Methyl)-2,2’-Bipryridine) Platinum] in an Orthotopic Patient-Derived Xenograft Model of Triple-Negative Breast Cancers” (Pharmaceutics, 2022)

Legend:
SK-OV-3 = assay: MTT cell viability assay on SK-OV-3; format: cell-based, human; conditions: for IC50: SK-OV-3, MTT assay, 48 h
Procedure: (§1) Human cancer cell lines, including MDA-MB-231, MCF-7, COLO205 and SK-OV-3, used in this study were purchased from American Type Culture Collection (ATCC, Manassas, VA, USA). All cell cultures were maintained in a 5% CO2-containing incubator at 37 °C. Triple-negative breast cancer cell line MDA-MB-231 and estrogen receptor-positive breast cancer cells MCF-7 were cultured in Dulbecco’s Modified Eagle Medium/Nutrient Mixture F-12 medium (DMEM/F12, Thermo Fisher Scientific Inc., Waltham, MA, USA) supplemented with 1% HyClone Penicillin-Streptomycin 100X solution (Cytiva, Marlborough, MA, USA) and 10% (v/v) fetal bovine serum (Thermo Fisher Scientific Inc., Waltham, MA, USA). COLO205 colon cancer cells and SK-OV-3 ovarian cancer cells were cultured in Roswell Park Memorial Institute (RPMI) 1640 medium (Thermo Fisher Scientific Inc., Waltham, MA, USA) containing the same supplements as described above.
(§2) Cell viability was evaluated using MTT assay. […] A viable cell count was determined by adding MTT reagent (3-(4,5-Dimethyl-2-thiazolyl)-2,5-diphenyl-2H-tetrazolium bromide (MTT; SERVA, Heidelberg, Germany) at a concentration of 5 mg/mL in PBS followed by measurement of the absorbance at 570 nm for each well detected by μQuant™ universal microplate spectrophotometer (BioTek, Winowski, VT, USA). The assessment procedures were followed under the manufacturer’s instructions. The final results were represented as mean values in the same experimental group detected by a microplate reader.

MDA-MB-231 cells = assay: Apoptosis detection (annexin V/PI, flow cytometry); format: cell-based, human; conditions: MDA-MB-231, 15 h
Procedure: In total, 3 × 10^5 MDA-MB-231 cells were first plated and cultured in a 6-well plate for 24 h and then exposed to medium, TFBPC- or CDDP-containing medium, and incubated in the dark for another 15 h, followed by apoptotic assessment using FITC-annexin V (AV) and propidium iodide (PI) double staining cell solution (Thermo Fisher Scientific Inc., Waltham, MA, USA) for 30 min. To assess the AV-Phosphatidylserine (excitation/emission maxima of 490/525 nm) and PI-DNA (excitation/emission maxima of 535/617 nm) binding, fluorescence intensity was analyzed and recorded using flow cytometer. Scatters in a two-parameter dot plot were gated into four quadrants. Proportions in the lower right (LR) and upper right (UR) quadrants were represented as the early stage and late stage in apoptotic process.

COLO205 = assay: MTT cell viability assay on COLO205; format: cell-based, human; conditions: for reduction (proliferative inhibition): COLO205, 20 μM; for IC50: COLO205, MTT assay, 48 h
Procedure: as §1, §2

[1] = CDX model: body and organ weight, CBC and blood biochemistry; format: in vivo; conditions: NSG mice
Procedure: The procedures for the establishment of breast cancer-bearing xenograft models were modified from a previous publication and approved by the Taipei Medical University (TMU) Institutional Animal Care and Use Committee (IACUC No. LAC-2020-0175). Overall, 4- to 6-week-old NOD.Cg-PrkdcscidIl2rgtm1Wjl/SzJ (NSG) female mice purchased from National Laboratory Animal Center (Taipei, Taiwan) were housed in specific pathogen-free rooms with ad libitum feeding and 12 h light–dark cycle. After a week of acclimatization, 2 × 10^6 MDA-MB-231 cells suspended in 1:1 ratio of phosphate-buffered saline plus Matrigel® Matrix (Cat. 356237; Corning Inc., New York, NY, USA) were subcutaneously injected on the right flank of each mouse. […] To monitor tumor growth in the models, tumor diameter was measured using an electronic caliper and values were applied on the equation: width^2 × length × 0.52 to estimate their tumor volume. All mice were sacrificed on day 28 after treatment. Plasma, tumors and major organs (heart, liver, kidney, spleen and lung) were collected for toxicity assessment and metastasis evaluation. Whole blood harvested from sacrificed animals was collected in EDTA-containing or heparin-containing tubes for CBC and biochemical analysis. For biochemical analysis, whole blood was centrifuged under 2000× g for 5 min to separate plasma from blood cells and then plasma was kept and stored in a −20 °C fridge until further analysis. Concentrations of albumin, total protein, aspartate aminotransferase (AST), alanine aminotransferase (ALT) and creatinine (CREA) in plasma, numbers of red blood cells (RBC), platelets (PLT), white blood cells (WBC) and hemoglobin (HGB) concentration in EDTA-anticoagulated whole blood were determined by medical laboratory scientists in Taipei Medical University Hospital (Taipei, Taiwan).

[2] = test system: P53, Ki-67, cleaved caspase 3, PD-L1; assay: Immunohistochemistry of CDX tumors; format: in vivo, mice; conditions: 5 mg/kg
From the text: Formalin-fixed and paraffin-embedded 4 μm sections of tumor and organs from cell-bearing xenograft models were stained in hematoxylin and eosin to provide an overall morphology of tissues. Tumor sections were dewaxed with UltraClear™ (J.T.Baker, Phillipsburg, NJ, USA), rehydrated in a descending series of alcohol and water and had antigens unmasked in pH 6 or pH 9 Epitope Retrieval Solution (Leica Biosystems Inc., Wetzlar, Germany) in a microwave pressure cooker. […] VisUCyte HRP Polymer Antibody against rabbit IgG (VC003-025; R&D Systems, Minneapolis, MN, USA) and mouse IgG (VC001-025; R&D Systems, Minneapolis, MN, USA) were targeted to primary antibodies. Liquid DAB+ system from Agilent Technologies (Santa Clara, CA, USA) was applied as a chromogen for visualizing. Slides were mounted after hematoxylin counterstaining. All images were scanned using Motic EasyScan Pro 6 pathology slide scanner (Motic China Group Co., Ltd., Hong Kong, China).

calf thymus DNA (ct-DNA) = assay: UV-Vis spectrum of DNA-drug complex; format: binding; conditions: 25 ng/μL ct-DNA, 40-640 μM, 6 h, 37 °C
Procedure: The binding of the platinum-based agent with calf thymus DNA (ct-DNA) was assessed using UV-visible spectroscopy. […] Absorption between the wavelengths of 220 nm and 500 nm was detected by measuring absorbance every 2 nm via Thermo Varioskan Flash microplate reader (Thermo Fisher Scientific Inc., Waltham, MA, USA). The maximal absorbance of DNA at 260 nm was marked to highlight the spectrum in pure DNA without chemical intercalation.

[3] = 2.11 mg/kg i.p. weekly x4, day 28
[4] = 5 mg/kg i.p. weekly x4, day 28, reference interval 0.2–0.5
[5] = 5 mg/kg i.p. weekly x4, day 28, reference interval 4–10.9
[6] = 5 mg/kg i.p. weekly x4, day 28, reference interval 7.75–9.61
[7] = 5 mg/kg i.p. weekly x4, day 28, reference interval 13–39
[8] = 5 mg/kg i.p. weekly x4, day 28, reference interval 63–227
[9] = 5 mg/kg i.p. weekly x4, day 28, reference interval 853–1951
[10] = 5 mg/kg i.p. weekly x4, day of sacrifice (day 28)

SMILES | IC50 (SK-OV-3) | induction of apoptosis (annexin V) (MDA-MB-231 cells) | reduction (proliferative inhibition) (COLO205) | IC50 (COLO205) | Heart ([1]; 5 mg/kg i.p. weekly x4, day 28) | Kidney ([1]; 5 mg/kg i.p. weekly x4, day 28) | Liver ([1]; 5 mg/kg i.p. weekly x4, day 28) | Lung ([1]; 5 mg/kg i.p. weekly x4, day 28) | Spleen ([1]; 5 mg/kg i.p. weekly x4, day 28) | CREA [1, 4] | WBC [1, 5] | RBC [1, 6] | ALT [1, 7] | AST [1, 8] | PLT [1, 9] | Body weight [1, 10] | expression of P53, Ki-67 and PD-L1 in tumors (IHC) [2] | expression of cleaved caspase 3 in tumors (IHC) [2] | change in UV-Vis absorption spectrum of ct-DNA at 260 nm (calf thymus DNA (ct-DNA)) | further results
N.N.[Cl][Pt][Cl] [CDDP, Cis-diamineplatinum(II) dichloride] | 41 µM | failed to induce MDA-MB-231 cells to undergo apoptosis | 23% | 70 µM | 0.13 ± 0.01 g | 0.29 ± 0.02 g | 0.98 ± 0.10 g | 0.26 ± 0.13 g | 0.13 ± 0.18 g | 0.23 ± 0.05 mg/dL | 6.33 ± 1.59 10^3/µL | 9.18 ± 0.46 10^6/µL | 29.00 ± 3.46 U/L | 172.3 ± 44.28 U/L | 927.80 ± 223.4 10^3/µL | 22.20 ± 2.12 g | lower intensity in P53, Ki-67 and PD-L1 | higher intensity of cleaved caspase 3 | hypochromic profile | Heart [1, 3]: 0.14 ± 0.04 g; Kidney [1, 3]: 0.31 ± 0.02 g; Liver [1, 3]: 1.04 ± 0.08 g; Lung [1, 3]: 0.23 ± 0.04 g; Spleen [1, 3]: 0.03 ± 0.00 g; CREA ([1]; 2.11 mg/kg i.p. weekly x4, day 28, reference interval 0.2–0.5): 0.20 ± 0.00 mg/dL; WBC ([1]; 2.11 mg/kg i.p. weekly x4, day 28, reference interval 4–10.9): 3.48 ± 0.13 ^§ 10^3/µL; RBC ([1]; 2.11 mg/kg i.p. weekly x4, day 28, reference interval 7.75–9.61): 9.25 ± 0.33 10^6/µL; ALT ([1]; 2.11 mg/kg i.p. weekly x4, day 28, reference interval 13–39): 34.25 ± 9.18 U/L; AST ([1]; 2.11 mg/kg i.p. weekly x4, day 28, reference interval 63–227): 120.3 ± 20.82 U/L; PLT ([1]; 2.11 mg/kg i.p. weekly x4, day 28, reference interval 853–1951): 867.3 ± 97.6 10^3/µL; Body weight ([1]; 2.11 mg/kg i.p. weekly x4, day of sacrifice (day 28)): 24.08 ± 2.89 g
FC(F)C(F)(F)COCc1ccnc(-c2cc(COCC(F)(F)C(F)F)ccn2)c1.[Cl][Pt][Cl] [TFBPC] | 1.92 µM | caused cells to undergo an apoptotic fate | 72% | 11.5 µM | 0.14 ± 0.04 g | 0.31 ± 0.02 g | 1.04 ± 0.08 g | 0.23 ± 0.04 g | 0.03 ± 0.00 g | 0.20 ± 0.00 mg/dL | 5.70 ± 1.54 10^3/µL | 9.85 ± 0.30 10^6/µL | 38.75 ± 7.09 U/L | 190.0 ± 65.17 U/L | 975 ± 205.8 10^3/µL | 23.62 ± 1.56 g | lowest level in expressions of P53, Ki-67 and PD-L1 | highest expression of cleaved caspase 3 | hyperchromicity profile | reduction in cell viability (SK-OV-3; SK-OV-3, 0.625 μM): 29%; reduction in cell viability (SK-OV-3; SK-OV-3, 1.23 μM): 54%; reduction in cell viability (SK-OV-3; SK-OV-3, 2.5 μM): 78%; cell viability of COLO205 cells (COLO205; MTT, 20 to 80 μM, 24 or 48 h, supplementary figure): effective in inhibiting the cell viability; Albumin ([1]; 5 mg/kg i.p. weekly x4, day 28, reference interval 3.0–3.9): 3.20 ± 0.29 g/dL; Total protein ([1]; 5 mg/kg i.p. weekly x4, day 28, reference interval 4.5–5.5): 4.98 ± 0.17 g/dL; HGB ([1]; 5 mg/kg i.p. weekly x4, day 28, reference interval 12.20–13.90): 14.9 ± 0.53 g/dL
